Tests used:
[1] = target: T1, Muscarinic acetylcholine receptor M4 (Homo sapiens, UniProt P08173); test: (§1) Agonist activity at human Muscarinic acetylcholine receptor M4 expressed in HEK cells co-expressing Glosensor construct assessed as decrease in isoproterenol-induced cAMP accumulation incubated for 7 mins in presence of isoproterenol by Glosensor cAMP reagent/plate reader based luminescence assay; assay type: functional, cell-based
T1 sequence (P08173 whole entry): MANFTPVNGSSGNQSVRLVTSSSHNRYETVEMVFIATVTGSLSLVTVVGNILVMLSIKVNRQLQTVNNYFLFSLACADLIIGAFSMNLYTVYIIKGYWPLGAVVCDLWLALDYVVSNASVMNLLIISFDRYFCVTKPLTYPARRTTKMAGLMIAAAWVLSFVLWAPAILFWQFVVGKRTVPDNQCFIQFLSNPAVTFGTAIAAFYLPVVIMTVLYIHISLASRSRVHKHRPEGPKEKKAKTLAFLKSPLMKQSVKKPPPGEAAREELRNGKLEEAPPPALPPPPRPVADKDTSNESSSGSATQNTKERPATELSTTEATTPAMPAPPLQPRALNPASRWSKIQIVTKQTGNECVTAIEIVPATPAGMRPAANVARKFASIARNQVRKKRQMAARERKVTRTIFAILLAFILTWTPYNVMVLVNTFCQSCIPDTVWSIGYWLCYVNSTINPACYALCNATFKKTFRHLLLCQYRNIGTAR

[2] = target: T2, Muscarinic acetylcholine receptor M2 (Homo sapiens, UniProt P08172); test: (§2) Agonist activity at human Muscarinic acetylcholine receptor M2 expressed in HEK cells co-expressing Glosensor construct assessed as decrease in isoproterenol-induced cAMP accumulation incubated for 7 mins in presence of isoproterenol by Glosensor cAMP reagent/plate reader based luminescence assay; assay type: cell-based
T2 sequence (P08172 whole entry): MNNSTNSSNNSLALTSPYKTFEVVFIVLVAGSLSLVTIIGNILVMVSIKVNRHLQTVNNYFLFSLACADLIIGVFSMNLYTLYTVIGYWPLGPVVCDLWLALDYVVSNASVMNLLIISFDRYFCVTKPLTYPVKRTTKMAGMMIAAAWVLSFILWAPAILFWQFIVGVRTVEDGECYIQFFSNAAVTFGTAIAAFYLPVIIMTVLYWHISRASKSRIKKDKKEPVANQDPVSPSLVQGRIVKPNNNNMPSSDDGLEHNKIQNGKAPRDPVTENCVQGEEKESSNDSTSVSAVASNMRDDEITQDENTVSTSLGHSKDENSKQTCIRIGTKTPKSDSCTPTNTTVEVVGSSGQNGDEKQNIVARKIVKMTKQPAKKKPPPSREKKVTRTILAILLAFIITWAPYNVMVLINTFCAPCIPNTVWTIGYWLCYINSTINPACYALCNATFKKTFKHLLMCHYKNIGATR

[3] = target: T3, Muscarinic acetylcholine receptor M4 (Homo sapiens) (UniProt P08173); test: Agonist activity at human Muscarinic acetylcholine receptor M4 expressed in HEK cells co-expressing Glosensor construct assessed as decrease in isoproterenol-induced cAMP accumulation at 10 uM to 0.3 nM incubated for 2 hrs in presence of isoproterenol and measured after 7 mins by Glosensor cAMP reagent/plate reader based luminescence assay relative to acetylcholine; assay type: functional, cell-based
T3 sequence (whole entry): T1 sequence (P08173 whole entry)

[4] = target: T2, Muscarinic acetylcholine receptor M2; test: as §2, with “accumulation at 10 uM to 0.3 nM” for “accumulation”, “assay relative to acetylcholine” for “assay”; assay type: cell-based
[5] = target: T1, Muscarinic acetylcholine receptor M4; test: as §1, with “Positive allosteric modulatory” for “Agonist”, “as […]” for “decrease”, “acteylcholine-induced” for “isoproterenol-induced”, “isoproterenol/acetylcholine” for “isoproterenol”; assay type: functional, cell-based
mouse BCRP = test: Efflux ratio of permeability across basolateral to apical over apical to basolateral in Doxycycline induced dog MDCK cells transfected with mouse BCRP; assay type: ADME, cell-based, Canis lupus familiaris
MDR1 = test: Efflux ratio of permeability across basolateral to apical over apical to basolateral in dog MDCK cells transfected with MDR1 gene; assay type: ADME, cell-based, Canis lupus familiaris
[6] = target: T3, Muscarinic acetylcholine receptor M4 (Homo sapiens); test: Positive allosteric modulatory activity at human Muscarinic acetylcholine receptor M4 expressed in HEK cells co-expressing Glosensor construct assessed as as increase in acteylcholine-induced cAMP accumulation at 10 uM to 0.3 nM incubated for 7 mins in presence of isoproterenol/acetylcholine by Glosensor cAMP reagent/plate reader based luminescence assay relative to acetylcholine; assay type: functional, cell-based

Row | SMILES | EC50 [1] [nM] | Emax [3] [%] | EC50 [5] [nM] | further results
1 | COc1cccnc1C1CCN(C2CCCN(c3nccs3)CC2)CC1 (stereo not drawn) | > 10000 | – | > 10000 | –
2 | COc1cccnc1C1CCN(C2CCCN(c3ncccn3)CC2)CC1 (stereo not drawn) | – | – | > 10000 | –
3 | c1ccc(-n2ccnc2[C@@H]2[C@@H]3CN(C4CC5(CCN(c6cnccn6)C5)C4)C[C@@H]32)cc1 (stereo partly drawn) | 7 | 83.8 | – | EC50 ([2]; read-out: EC50): 420 nM; Emax at 7 min [4]: 79.4%
4 | COc1cccnc1C1CCN(CC2CCN(c3cnccn3)CC2)CC1 | 296 | 78 | – | EC50 ([2]; read-out: EC50): > 8830 nM; efflux ratio (mouse BCRP): 1.62; efflux ratio (MDR1): 3.89; Emax at 7 min [4]: 102%
5 | COc1cccnc1C1CCN(C2CCCN(c3ccncc3)CC2)CC1 (stereo not drawn) | > 10000 | – | > 10000 | –
6 | COc1cccnc1C1CCN(C2CCCN(c3cnccn3)CC2)CC1 (stereo not drawn) | 16 | 96.8 | 25 | EC50 ([2]; read-out: EC50): 250 nM; Emax at 7 min [4]: 104%; Emax [6]: 95.9%
7 | CCCCCCOc1nsnc1C1=CCCN(C)C1 | – | – | – | Emax [6]: 100%
8 | COc1cccnc1C1CCN(C2CCCN(c3ccccn3)CC2)CC1 (stereo not drawn) | – | – | > 10000 | –
9 | CCOC(=O)N1CCC2(CC(N3C[C@@H]4[C@H](C3)[C@@H]4c3nccn3-c3ccccc3)C2)C1 (stereo partly drawn) | 3 | 99 | – | EC50 ([2]; read-out: EC50): 5160 nM; Emax at 7 min [4]: 100%
10 | O=C1CCCN1CC#CCN1CCCC1 [OXOTREMORINE] | – | 94.4 | 9 | Emax [6]: 90.7%
11 | COc1cccnc1C1CCN(C2CCCN(c3cccnc3)CC2)CC1 (stereo not drawn) | – | – | 10000 | Emax [6]: 80%
12 | CCOC(=O)N1CCC(CN2CCC(c3ncccc3OC)CC2)CC1 | 23 | 82 | – | EC50 [2]: Not Active
13 | COc1cccnc1C1CCN(C2CCCN(c3cncnc3)CC2)CC1 (stereo not drawn) | – | – | > 10000 | –
14 | CCOC(=O)N1CCC2(CC(N3CCC(c4ncccc4OC)CC3)C2)C1 (stereo not drawn) | 9 | 90 | – | EC50 ([2]; read-out: EC50): > 10000 nM
15 | COc1cccnc1C1CCN(C2CCCN(c3cccnn3)CC2)CC1 (stereo not drawn) | – | – | > 10000 | –
16 | COc1cccnc1C1CCN(C2CCCN(c3nncs3)CC2)CC1 (stereo not drawn) | > 10000 | – | > 10000 | –
17 | COc1cccnc1C1CCN(C2CC3(CCN(c4cnccn4)C3)C2)CC1 (stereo not drawn) | 228 | 100 | – | EC50 ([2]; read-out: EC50): > 7350 nM; Emax at 7 min [4]: 100%

Now from value to molecule, other results behind:

Row | EC50 [1] [nM] | Emax [3] [%] | SMILES | EC50 [5] [nM] | further results
18 | 11 | 99 to 99.1 | CCOC(=O)N1CCCC(N2CCC(c3ncccc3OC)CC2)CC1 (stereo not drawn) | – | EC50 ([2]; read-out: EC50): 2520 nM; Emax at 7 min [4]: 83%
19 | > 2740 | – | COc1cccnc1C1CCN(C2CCCN(c3nc(C)cs3)CC2)CC1 (stereo not drawn) | > 10000 | –
20 | > 8880 | – | CCCC(=O)N1CCCC(N2CCC(c3ncccc3OC)CC2)CC1 (stereo not drawn) | – | –
21 | 470 | 107 | COc1cccnc1C1CCN(C2CCCN(c3nsnc3C)CC2)CC1 (stereo not drawn) | – | –
22 | > 10000 | – | CCNS(=O)(=O)N1CCCC(N2CCC(c3ncccc3OC)CC2)CC1 (stereo not drawn) | – | –
23 | > 9930 | – | COc1cccnc1C1CCN(C2CCCN(C(=O)OCC(C)C)CC2)CC1 (stereo not drawn) | – | –
24 | > 4160 | 51 | COc1cccnc1C1CCN(C2CCCN(c3cnc(C)cn3)CC2)CC1 (stereo not drawn) | – | –
25 | 2510 | 94 | COc1cccnc1C1CCN(C2CCCN(c3nsnc3OC)CC2)CC1 (stereo not drawn) | – | –
26 | 1100 | 101 | COc1cccnc1C1CCN(C2CCCN(c3ncns3)CC2)CC1 (stereo not drawn) | – | –
27 | 3550 | 120 | COc1cccnc1C1CCN(C2CCCN(c3nccnc3C)CC2)CC1 (stereo not drawn) | 3410 | –
28 | 9830 | 100 | COc1cccnc1C1CCN(C2CCCN(c3cncc(C)n3)CC2)CC1 (stereo not drawn) | > 10000 | –
29 | > 9250 | – | COc1cccnc1C1CCN(C2CCCN(C(=O)OC(C)C)CC2)CC1 (stereo not drawn) | – | –
30 | > 5990 | – | CCNC(=O)N1CCCC(N2CCC(c3ncccc3OC)CC2)CC1 (stereo not drawn) | – | –
31 | 20 | 109 | COc1cccnc1C1CCN(C2CCCN(c3cnsn3)CC2)CC1 (stereo not drawn) | – | –

Reference: ChEMBL document CHEMBL4304767 (ACS Med Chem Lett, 2019)
